How the values were obtained:
Assay type in all cases: functional, cell-based
[1] = test system: MCF7; assay: Antiproliferative activity against human MCF7 cells incubated for 72 hrs; settings: MCF7, 72 h
[2] = test system: MGC-803; assay: Antiproliferative activity against human MGC-803 cells incubated for 72 hrs; settings: MGC-803, 72 h
[3] = test system: U-937; assay: Antiproliferative activity against human U-937 cells incubated for 72 hrs; settings: U-937, 72 h
[4] = test system: HepG2; assay: Antiproliferative activity against human HepG2 cells incubated for 72 hrs; settings: HepG2, 72 h
[5] = test system: A549; assay: Antiproliferative activity against human A549 cells incubated for 72 hrs; settings: A549, 72 h
[6] = test system: HeLa; assay: Antiproliferative activity against human HeLa cells incubated for 72 hrs

Row | Compound | IC50 [1] [µM] | IC50 [2] [µM] | IC50 [3] [µM] | IC50 [4] [µM] | IC50 [5] [µM] | IC50 [6] [µM]
1 | COc1ccc(/C=C\c2cc(OC)c(OC)c(OC)c2)cc1OCc1cn(CCCCCC(=O)Nc2cccc3c2C(=O)N(C2CCC(=O)NC2=O)C3=O)nn1 (centres undefined) | > 5 | > 5 | > 5 | > 5 | > 5 | > 5
2 | COc1ccc(/C=C\c2cc(OC)c(OC)c(OC)c2)cc1OC(=O)CCCCN1C(=O)CCC(N2Cc3c(N)cccc3C2=O)C1=O (centres undefined) | > 5 | > 5 | > 5 | > 5 | > 5 | > 5
3 | COc1ccc(/C=C\c2cc(OC)c(OC)c(OC)c2)cc1OC(=O)CN1C(=O)CCC(N2Cc3c(N)cccc3C2=O)C1=O (centres undefined) | > 5 | > 5 | > 5 | > 5 | > 5 | > 5
4 | COc1ccc(/C=C\c2cc(OC)c(OC)c(OC)c2)cc1OC(=O)CCCCCN1C(=O)CCC(N2Cc3c(N)cccc3C2=O)C1=O (centres undefined) | > 5 | > 5 | > 5 | > 5 | > 5 | > 5
5 | COc1ccc(/C=C\c2cc(OC)c(OC)c(OC)c2)cc1OC(=O)CCCN1C(=O)CCC(N2Cc3c(N)cccc3C2=O)C1=O (centres undefined) | > 5 | > 5 | > 5 | > 5 | > 5 | > 5
6 | COc1ccc(/C=C\c2cc(OC)c(OC)c(OC)c2)cc1OC(=O)CNc1cccc2c1C(=O)N(C1CCC(=O)NC1=O)C2=O (centres undefined) | > 5 | > 5 | > 5 | > 5 | > 5 | > 5
7 | COc1ccc(/C=C\c2cc(OC)c(OC)c(OC)c2)cc1OCc1cn(CCCC(=O)Nc2cccc3c2C(=O)N(C2CCC(=O)NC2=O)C3=O)nn1 (centres undefined) | > 5 | 1.24 | > 5 | 1.6 | 2.76 | > 5
8 | COc1ccc(/C=C\c2cc(OC)c(OC)c(OC)c2)cc1OC(=O)CCN1C(=O)CCC(N2Cc3c(N)cccc3C2=O)C1=O (centres undefined) | > 5 | > 5 | > 5 | > 5 | > 5 | > 5

Further lines, results first:

Row | IC50 [1] [µM] | IC50 [2] [µM] | IC50 [3] [µM] | IC50 [4] [µM] | IC50 [5] [µM] | IC50 [6] [µM] | Compound
9 | > 5 | > 5 | > 5 | > 5 | > 5 | > 5 | COc1ccc(/C=C\c2cc(OC)c(OC)c(OC)c2)cc1OC(=O)CCCOCCc1cn(CCCCC(=O)Nc2cccc3c2C(=O)N(C2CCC(=O)NC2=O)C3=O)nn1 (centres undefined)
10 | > 5 | > 5 | > 5 | > 5 | > 5 | > 5 | COc1ccc(/C=C\c2cc(OC)c(OC)c(OC)c2)cc1OC(=O)CCNc1cccc2c1C(=O)N(C1CCC(=O)NC1=O)C2=O (centres undefined)
11 | 4.23 | 2.35 | > 5 | 3.12 | 3.75 | > 5 | COc1ccc(/C=C\c2cc(OC)c(OC)c(OC)c2)cc1OC(=O)CCCOCCc1cn(CCCC(=O)Nc2cccc3c2C(=O)N(C2CCC(=O)NC2=O)C3=O)nn1 (centres undefined)
12 | 2.35 | 1.4 | > 5 | 1.92 | 2.44 | > 5 | COc1ccc(/C=C\c2cc(OC)c(OC)c(OC)c2)cc1OC(=O)CCCCCOCCc1cn(CCCCC(=O)Nc2cccc3c2C(=O)N(C2CCC(=O)NC2=O)C3=O)nn1 (centres undefined)
13 | 0.247 | 0.061 | 4.32 | 0.128 | 0.544 | 1.27 | COc1ccc(/C=C\c2cc(OC)c(OC)c(OC)c2)cc1OC(=O)CCCCOCCc1cn(CCCC(=O)Nc2cccc3c2C(=O)N(C2CCC(=O)NC2=O)C3=O)nn1 (centres undefined)
14 | 2.38 | 1.53 | > 5 | 2.3 | 1.83 | 1.9 | COc1ccc(/C=C\c2cc(OC)c(OC)c(OC)c2)cc1OC(=O)CCCCCOCCc1cn(CCCC(=O)Nc2cccc3c2C(=O)N(C2CCC(=O)NC2=O)C3=O)nn1 (centres undefined)
15 | 4.06 | > 5 | 1.62 | > 5 | > 5 | > 5 | COc1ccc(/C=C\c2cc(OC)c(OC)c(OC)c2)cc1OCc1cn(CCCCC(=O)Nc2cccc3c2C(=O)N(C2CCC(=O)NC2=O)C3=O)nn1 (centres undefined)
16 | 2.3 | 1.79 | > 5 | 1.99 | 1.76 | > 5 | COc1ccc(/C=C\c2cc(OC)c(OC)c(OC)c2)cc1OC(=O)CCCCCOCCc1cn(CCCCCC(=O)Nc2cccc3c2C(=O)N(C2CCC(=O)NC2=O)C3=O)nn1 (centres undefined)
17 | 2.98 | 3.1 | > 5 | 2.88 | 3.9 | > 5 | COc1ccc(/C=C\c2cc(OC)c(OC)c(OC)c2)cc1OC(=O)CCCOCCc1cn(CCCCCC(=O)Nc2cccc3c2C(=O)N(C2CCC(=O)NC2=O)C3=O)nn1 (centres undefined)
18 | 0.263 | 0.175 | 0.8 | 0.213 | 0.374 | 1.51 | COc1ccc(/C=C\c2cc(OC)c(OC)c(OC)c2)cc1OC(=O)CCCCOCCc1cn(CCCCC(=O)Nc2cccc3c2C(=O)N(C2CCC(=O)NC2=O)C3=O)nn1 (centres undefined)
19 | 0.417 | 0.195 | 8.59 | 0.242 | 0.466 | 1.31 | COc1ccc(/C=C\c2cc(OC)c(OC)c(OC)c2)cc1OC(=O)CCCCOCCc1cn(CCCCCC(=O)Nc2cccc3c2C(=O)N(C2CCC(=O)NC2=O)C3=O)nn1 (centres undefined)

— ChEMBL document CHEMBL5518186, “Discovery of the cereblon-recruiting tubulin PROTACs effective in overcoming Taxol resistance in vitro and in vivo” (Eur J Med Chem, 2024)
